Results: paper PMC7190177, “Click chemistry-facilitated comprehensive identification of proteins adducted by antimicrobial 5-nitroimidazoles for discovery of alternative drug targets against giardiasis” (PLoS Neglected Tropical Diseases, 2020)

How the values were obtained:
[1] = target: T1, Ornithine carbamoyltransferase (OCT) (Giardia duodenalis, UniProt E2RTT6); assay: click biotinylation, streptavidin pull-down from treated trophozoites, LC-MS/MS and immunoblot; format: cell-based; conditions: covalent; prodrug reduced in the cells; 100 uM, 2 h
T1 construct: gene GL50803_0010311; native protein in trophozoites, 327 aa
T1 sequence (E2RTT6 1-327): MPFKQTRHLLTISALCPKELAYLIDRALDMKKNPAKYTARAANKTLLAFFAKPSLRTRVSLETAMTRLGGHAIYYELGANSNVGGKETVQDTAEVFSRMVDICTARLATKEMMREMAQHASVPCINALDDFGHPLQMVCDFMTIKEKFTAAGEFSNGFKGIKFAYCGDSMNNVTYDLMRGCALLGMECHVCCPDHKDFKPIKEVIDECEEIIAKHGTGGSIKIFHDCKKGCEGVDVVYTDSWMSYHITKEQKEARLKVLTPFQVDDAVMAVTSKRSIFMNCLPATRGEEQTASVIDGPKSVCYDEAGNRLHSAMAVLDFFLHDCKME

Enolase = target: T2, Enolase (Giardia duodenalis, UniProt E2RTS6); assay: as above; format: cell-based; conditions: covalent; prodrug reduced in the cells; 100 uM, 2 h
T2 construct: gene GL50803_0011118; native protein in trophozoites, 445 aa
T2 sequence (E2RTS6 1-445): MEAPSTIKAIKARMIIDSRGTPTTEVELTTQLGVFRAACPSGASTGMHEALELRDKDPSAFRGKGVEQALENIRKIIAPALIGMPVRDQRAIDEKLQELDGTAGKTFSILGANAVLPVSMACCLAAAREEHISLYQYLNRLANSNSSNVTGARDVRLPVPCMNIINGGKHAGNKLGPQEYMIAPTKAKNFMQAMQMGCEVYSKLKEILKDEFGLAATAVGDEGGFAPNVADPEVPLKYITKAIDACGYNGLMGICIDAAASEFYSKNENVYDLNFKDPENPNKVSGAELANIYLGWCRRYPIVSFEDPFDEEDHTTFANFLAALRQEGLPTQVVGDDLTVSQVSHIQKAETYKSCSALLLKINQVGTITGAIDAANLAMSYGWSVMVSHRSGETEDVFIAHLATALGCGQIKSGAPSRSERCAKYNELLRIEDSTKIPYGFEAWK

Arginine deiminase (ADI) = target: T3, Arginine deiminase (ADI) (Giardia duodenalis, UniProt E2RU36); assay: colorimetric citrulline-detection assay of recombinant His-tagged ADI; format: biochemical; conditions: 500 uM Mz-alkyne + 1 mM dithionite (reductive activation of prodrug), 2 h; 1 mM arginine, Hepes pH 7.0, 37 C; covalent
T3 construct: gene GL50803_00112103; full-length 580 aa, C-terminal His tag (pETite C-His), E. coli BL21-CodonPlus(DE3)-RIL
T3 sequence (E2RU36 entry or part of it): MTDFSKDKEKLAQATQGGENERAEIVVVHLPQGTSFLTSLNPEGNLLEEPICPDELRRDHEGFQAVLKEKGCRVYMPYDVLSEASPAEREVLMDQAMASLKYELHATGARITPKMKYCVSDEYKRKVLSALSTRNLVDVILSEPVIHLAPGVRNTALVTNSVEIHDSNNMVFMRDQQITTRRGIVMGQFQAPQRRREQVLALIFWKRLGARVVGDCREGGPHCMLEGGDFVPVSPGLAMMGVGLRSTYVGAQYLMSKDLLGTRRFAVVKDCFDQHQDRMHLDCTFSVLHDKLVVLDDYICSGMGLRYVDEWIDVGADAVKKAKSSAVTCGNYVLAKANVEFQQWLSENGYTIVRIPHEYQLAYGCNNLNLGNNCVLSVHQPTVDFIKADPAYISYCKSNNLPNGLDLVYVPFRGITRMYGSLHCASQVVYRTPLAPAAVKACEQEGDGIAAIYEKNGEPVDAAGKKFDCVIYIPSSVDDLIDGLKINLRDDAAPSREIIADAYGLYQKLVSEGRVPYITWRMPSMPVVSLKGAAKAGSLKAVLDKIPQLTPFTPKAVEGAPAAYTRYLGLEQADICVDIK

C#CCCn1c([N+](=O)[O-])cnc1C [Mz-alkyne, 1-(But-3-ynyl)-2-methyl-5-nitro-1H-imidazole]
adduct [1]: these proteins were labeled with biotin and thus adducted by Mz-alkyne
adduct (Enolase): these proteins were labeled with biotin and thus adducted by Mz-alkyne
inhibition (Arginine deiminase (ADI)): Wild-type ADI was significantly inhibited by activated Mz-alkyne under cell-free conditions
